From ChEMBL document CHEMBL1139528, “Molecular determinants of topoisomerase I poisoning by lamellarins: comparison with camptothecin and structure-activity relationships” (J Med Chem, 2005)

Key:
CCRF-CEM [1] = assay: Inhibitory concentration against CEM cell growth after incubation in liquid medium for 72 h; format: functional, cell-based; conditions: Homo sapiens
[2] = Inhibitory concentration against CEM/C2 cell growth after incubation in liquid medium for 72 h; format: functional, cell-based; conditions: Homo sapiens, CEM/C2, 72 h
CCRF-CEM [3] = assay: Ratio of IC50 against CPT-resistant cell line to that of CPT-sensitive cell line expressed as relative resistant index; format: functional, Homo sapiens

Row | SMILES | IC50 (CCRF-CEM [1]) [nM] | IC50 [2] [nM] | RRI (CCRF-CEM [3])
1 | COc1ccc(-c2c3c4cc5c(cc4oc(=O)c3n3ccc4cc(OC)c(OC)cc4c23)OCO5)cc1OC | > 100000 | > 100000 | 
2 | COc1ccc2oc(=O)c3c(c(-c4ccc(O)c(OC)c4)c4c5cc(OC)c(O)cc5ccn43)c2c1 | 520 | 6250 | 12
3 | CC[C@@]1(O)C(=O)OCc2c1cc1n(c2=O)Cc2cc3ccccc3nc2-1 [CAMPTOTHECIN] | 0.84 | 5380 | 6400
4 | CC(=O)Oc1ccc(-c2c3c4cc(OC(C)=O)c(OC(C)=O)cc4oc(=O)c3n3ccc4cc(OC(C)=O)c(OC(C)=O)cc4c23)cc1OC(C)=O | 1950 | 6930 | 4
5 | COc1cc(-c2c3c4ccc(O)cc4oc(=O)c3n3ccc4cc(O)c(OC)cc4c23)ccc1O | 17 | 2740 | 164
6 | COc1cc2c(cc1O)oc(=O)c1c2c(-c2ccc(OC)c(OC)c2)c2c3cc(OC)c(OC)cc3ccn21 | 3030 | 5550 | 2
7 | O=c1oc2ccccc2c2c(-c3ccc(O)c(O)c3)c3c4cc(O)c(O)cc4ccn3c12 | 430 | 950 | 2
8 | COc1cc(-c2c3c4cc(OC)c(O)cc4oc(=O)c3n3ccc4cc(O)c(OC)cc4c23)ccc1O [LAMELLARIN D] | 5 | 720 | 144
9 | COc1cc(-c2c3c4ccccc4oc(=O)c3n3ccc4cc(O)c(OC)cc4c23)ccc1O | 2230 | 11000 | 5
